Measurements reported in publication PMC6896172, “Successful Targeting of the Warburg Effect in Prostate Cancer by Glucose-Conjugated 1,4-Naphthoquinones” (Cancers, 2019).

What was measured:
PNT2 cells = experiment: MTT cytotoxicity assay in PNT2 cells; assay type: cell-based, human; settings: Homo sapiens, PNT2, 48 h, 48 h of treatment
Description: (§1) For general experiments human prostate cancer cell lines PC-3 and DU145 (docetaxel-resistant, androgen-independent, AR-FL(−), AR-V7(−)), 22Rv1 and VCaP (docetaxel-sensitive, androgen-independent, AR-FL(+), AR-V7(+), and LNCaP (docetaxel sensitive, androgen-dependent, AR-FL(+), AR-V7(−) were used. PC-3, 22Rv1, LNCaP cells as well as the human prostate non-cancer cells PNT2 and RWPE-1 were purchased from ATCC (Manassas, VA, USA). VCaP were purchased from ECACC (Salisbury, UK). The human fibroblast cell line MRC-9, the human embryonic kidney cell line HEK 293T, as well as the human umbilical vascular endothelial cell line HUVEC were kindly donated by Prof. Dr. Dr. med. Sonja Loges (University Medical Center Hamburg-Eppendorf, Hamburg, Germany). Cells were cultured according to the manufacturers’ instructions and were recently authenticated by a commercial service (Multiplexion, Heidelberg, Germany). Culture conditions are described in the Supplementary Information.
(§2) MTT (3-(4,5-dimethylthiazol-2-yl)-2,5-diphenyltetrazolium bromide) cytotoxicity assay was used for the evaluation of cytotoxicity of the compounds or their combinations. Experiments were performed as previously described. In brief, 6000 cells/well were seeded in 96-well plate, incubated overnight, and treated with the drugs in 100 µL/well of 10% FBS/RPMI media containing 2 g/L of D-(+)-glucose for 48 h, unless otherwise stated. For 2 h treatment the cells were treated with the drugs for 2 h in the culture media, then the media was exchanged to fresh drug-free media (100 µL/well) containing MTT reagent and the further steps were performed as previously described.
(§3) Table S4. Cytotoxic activity of the synthesized compounds. Cytotoxicity was determined in human prostate cancer PC-3 cells versus human prostate non-cancer
(§4) PNT2 cells after 48 h of treatment, as well as its ratio. IC50 was evaluated using MTT assay. SI–selectivity index. #–the IC50s in both cell lines were >100 µM.
(§5) Anisomycin was used as a reference substance.
(§6) No Formula IC50(PC-3) IC50(PNT2) SI […]

PC-3 cells = experiment: MTT cytotoxicity assay in PC-3 cells; assay type: cell-based, human; settings: for IC50: Homo sapiens, PC-3, 48 h, 48 h of treatment; for SI [IC50(PNT2) / IC50(PC-3)]: ratio of IC50 in PNT2 cells to IC50 in PC-3 cells, 48 h
Description: as §1, §2, §3, §4, §5, §6

Row | Structure (SMILES) | IC50 (PNT2 cells) [µM] | IC50 (PC-3 cells) [µM] | SI [IC50(PNT2) / IC50(PC-3)] (PC-3 cells)
1 | O=C1C=C(OCC2OC(O)C(O)C(O)C2O)C(=O)c2c(O)ccc(O)c21 (stereo not drawn) [Compound 16] | > 100 | > 100 | –
2 | CCc1c(O)c2c(c(O)c1OC)C(=O)C(OC)=CC2=O [Compound 17] | 12.5 | 21.8 | 0.57
3 | CCc1c(O)c2c(c(O)c1OC)C(=O)C(OCC1OC(C)(C)OC3C1OC1OC(C)(C)OC13)=CC2=O (stereo not drawn) [Compound 18] | 9.56 | 13.6 | 0.7
4 | CCc1c(O)c2c(c(O)c1OC)C(=O)C(OCC(O)C1OC3OC(C)(C)OC3C1O)=CC2=O (stereo not drawn) [Compound 19] | 41.7 | 27.9 | 1.49
5 | CCc1c(O)c2c(c(O)c1OC)C(=O)C(OC[C@H]1OC(O)[C@H](O)[C@@H](O)[C@@H]1O)=CC2=O (stereo partly drawn) [Compound 20] | 27.9 | 99 | 0.28
6 | CCc1c(O)c2c(c(O)c1Cl)C(=O)C(OC)=CC2=O [Compound 21] | 27.4 | 31.6 | 0.87
7 | CCc1c(O)c2c(c(O)c1Cl)C(=O)C(OCC1OC(C)(C)OC3C1OC1OC(C)(C)OC13)=CC2=O (stereo not drawn) [Compound 22] | 2.98 | 4.24 | 0.7
8 | CCc1c(O)c2c(c(O)c1Cl)C(=O)C(OCC(O)C1OC3OC(C)(C)OC3C1O)=CC2=O (stereo not drawn) [Compound 23] | 5.21 | 7.35 | 0.71
9 | CCc1c(O)c2c(c(O)c1Cl)C(=O)C(OC[C@H]1OC(O)[C@H](O)[C@@H](O)[C@@H]1O)=CC2=O (stereo partly drawn) [Compound 24] | > 100 | > 100 | –
10 | COC1=CC(=O)c2c(O)c(Cl)c(Cl)c(O)c2C1=O [Compound 25] | 1.22 | 2.3 | 0.53
11 | CC1(C)OC2OC3C(COC4=CC(=O)c5c(O)c(Cl)c(Cl)c(O)c5C4=O)OC(C)(C)OC3C2O1 (stereo not drawn) [Compound 26] | 2.07 | 2.75 | 0.75
12 | CC1(C)OC2OC(C(O)COC3=CC(=O)c4c(O)c(Cl)c(Cl)c(O)c4C3=O)C(O)C2O1 (stereo not drawn) [Compound 27] | 4.47 | 3.47 | 1.29
13 | O=C1C=C(OC[C@H]2OC(O)[C@H](O)[C@@H](O)[C@@H]2O)C(=O)c2c(O)c(Cl)c(Cl)c(O)c21 (stereo partly drawn) [Compound 28] | > 100 | > 100 | –
